The text below walks through data of PMC5218480 (PLoS ONE, 2017).

This assay has as its system MV-4-11 cells. Briefly: Gene expression microarray analysis (Affymetrix PrimeView) and GSEA. Type of assay: cell-based, human. Details: RFU PODN (11730768_x_at) / Fold change /veh PODN (11730768_x_at) / RFU LINC00158 (11744669_a_at) / Fold change /veh LINC00158 (11744669_a_at) / RFU DUSP10 (11751237_a_at) / Fold change /veh DUSP10 (11751237_a_at) / RFU ID3 (11757404_x_at) / Fold change /veh ID3 (11757404_x_at) / RFU PLEKHG5 (11737974_s_at) / Fold change /veh PLEKHG5 (11737974_s_at) / RFU LRRC4B (11730491_at) / Fold change /veh LRRC4B (11730491_at) / RFU GIMAP4 (11747438_a_at) / Fold change /veh GIMAP4 (11747438_a_at) / RFU KRT8 (11758183_x_at) / Fold change /veh KRT8 (11758183_x_at) / RFU CNN1 (11734310_a_at) / Fold change /veh CNN1 (11734310_a_at) / RFU VPS37D (11726825_at) / Fold change /veh VPS37D (11726825_at) / RFU C10orf10 (11716522_x_at) / Fold change /veh C10orf10 (11716522_x_at) / RFU KIR2DL2 /// KIR2DL4 /// KIR2DL5A /// KIR2DL5B /// KIR2DS1 /// KIR2DS2 /// KIR2DS3 /// KIR2DS4 /// KIR3DL3 /// KIR3DL3 /// KIR3DS1 (11738374_at) / Fold change /veh KIR2DL2 /// KIR2DL4 /// KIR2DL5A /// KIR2DL5B /// KIR2DS1 /// KIR2DS2 /// KIR2DS3 /// KIR2DS4 /// KIR3DL3 /// KIR3DL3 /// KIR3DS1 (11738374_at) / RFU C1QL1 (11718748_at) / Fold change /veh C1QL1 (11718748_at) / RFU TMPRSS4 (11747572_a_at) / Fold change /veh TMPRSS4 (11747572_a_at) / RFU HAMP (11756126_x_at) / Fold change /veh HAMP (11756126_x_at) / RFU RNFT2 (11725882_a_at) / Fold change /veh RNFT2 (11725882_a_at) / RFU NR4A2 (11747474_a_at) / Fold change /veh NR4A2 (11747474_a_at) / RFU ABCC12 (11746883_a_at) / Fold change /veh ABCC12 (11746883_a_at) / RFU TMEM136 (11760407_x_at) / Fold change /veh TMEM136 (11760407_x_at) / RFU CLDN22 /// WWC2 (11732394_at) / Fold change /veh CLDN22 /// WWC2 (11732394_at) / RFU HLA-DPB1 (11760878_x_at) / Fold change /veh HLA-DPB1 (11760878_x_at) / RFU SPINT1 (11716480_a_at) / Fold change /veh SPINT1 (11716480_a_at) / RFU GAP43 (11754022_s_at) / Fold change /veh GAP43 (11754022_s_at) / RFU A4GNT (11735810_at) / Fold change /veh A4GNT (11735810_at) / RFU PRB3 (11715151_x_at) / Fold change /veh PRB3 (11715151_x_at) / RFU TUBB4B (11761932_at) / Fold change /veh TUBB4B (11761932_at) / RFU CAPN14 (11732068_a_at) / Fold change /veh CAPN14 (11732068_a_at) / RFU TMCC2 (11721928_a_at) / Fold change /veh TMCC2 (11721928_a_at) / RFU IRGQ (11745062_a_at) / Fold change /veh IRGQ (11745062_a_at) / RFU FAM174B (11720279_a_at) / Fold change /veh FAM174B (11720279_a_at) / RFU TMPRSS4 (11748680_a_at) / Fold change /veh TMPRSS4 (11748680_a_at) / RFU FAM212B (11763350_a_at) / Fold change /veh FAM212B (11763350_a_at) / RFU PLEKHG5 (11743358_a_at) / Fold change /veh PLEKHG5 (11743358_a_at) / RFU ZSCAN30 (11745921_a_at) / Fold change /veh ZSCAN30 (11745921_a_at) / RFU CMKLR1 (11741424_a_at) / Fold change /veh CMKLR1 (11741424_a_at) / RFU LOC101060620 /// MAPK8IP1 (11723275_at) / Fold change /veh LOC101060620 /// MAPK8IP1 (11723275_at) / RFU SPTSSB (11747773_x_at) / Fold change /veh SPTSSB (11747773_x_at) / RFU PRSS12 (11739890_at) / Fold change /veh PRSS12 (11739890_at) / RFU BIN1 (11741810_x_at) / Fold change /veh BIN1 (11741810_x_at) / RFU WNT11 (11732464_a_at) / Fold change /veh WNT11 (11732464_a_at) / RFU C10orf10 (11716521_a_at) / Fold change /veh C10orf10 (11716521_a_at) / RFU C5orf56 (11738089_at) / Fold change /veh C5orf56 (11738089_at) / RFU CYB561 (11721691_x_at) / Fold change /veh CYB561 (11721691_x_at) / RFU ANKRD19P (11752326_a_at) / Fold change /veh ANKRD19P (11752326_a_at) / RFU OR2T12 /// OR2T33 /// OR2T8 (11738714_s_at) / Fold change /veh OR2T12 /// OR2T33 /// OR2T8 (11738714_s_at) / RFU VCAN (11748164_a_at) / Fold change /veh VCAN (11748164_a_at) / RFU JSRP1 (11732532_at) / Fold change /veh JSRP1 (11732532_at) / RFU KRTAP10-11 (11738290_x_at) / Fold change /veh KRTAP10-11 (11738290_x_at) / RFU MYO3A (11730013_a_at) / Fold change /veh MYO3A (11730013_a_at) / RFU EBF3 (11725865_a_at) / Fold change /veh EBF3 (11725865_a_at) / RFU CAMK2N1 (11719241_x_at) / Fold change /veh CAMK2N1 (11719241_x_at) / RFU C5orf56 (11738088_a_at) / Fold change /veh C5orf56 (11738088_a_at) / RFU OLFML3 (11715873_a_at) / Fold change /veh OLFML3 (11715873_a_at) / RFU LOC100653217 /// NTM (11731650_a_at) / Fold change /veh LOC100653217 /// NTM (11731650_a_at) / RFU MAPK11 (11762145_a_at) / Fold change /veh MAPK11 (11762145_a_at) / RFU FIZ1 (11724087_x_at) / Fold change /veh FIZ1 (11724087_x_at) / RFU OASL (11726364_x_at) / Fold change /veh OASL (11726364_x_at) / RFU SOX15 (11748057_x_at) / Fold change /veh SOX15 (11748057_x_at) / RFU CD79A (11719716_a_at) / Fold change /veh CD79A (11719716_a_at) / RFU HIST1H1D (11736915_at) / Fold change /veh HIST1H1D (11736915_at) / RFU CASKIN2 (11723855_a_at) / Fold change /veh CASKIN2 (11723855_a_at) / RFU LOC730098 (11760151_x_at) / Fold change /veh LOC730098 (11760151_x_at) / RFU OR4N2 (11742367_at) / Fold change /veh OR4N2 (11742367_at) / RFU PRRT2 (11749266_a_at) / Fold change /veh PRRT2 (11749266_a_at) / RFU SNX32 (11753110_a_at) / Fold change /veh SNX32 (11753110_a_at) / RFU CDHR5 (11726645_a_at) / Fold change /veh CDHR5 (11726645_a_at) / RFU RCAN1 (11760418_a_at) / Fold change /veh RCAN1 (11760418_a_at) / RFU FAM167A (11723789_a_at) / Fold change /veh FAM167A (11723789_a_at) / RFU FAM26E (11764081_at) / Fold change /veh FAM26E (11764081_at) / RFU ISYNA1 (11749810_s_at) / Fold change /veh ISYNA1 (11749810_s_at) / RFU ACY1 (11761880_at) / Fold change /veh ACY1 (11761880_at) / RFU 11764098_at / Fold change /veh 11764098_at / RFU SAMD14 (11745864_x_at) / Fold change /veh SAMD14 (11745864_x_at) / RFU NPB (11741838_a_at) / Fold change /veh NPB (11741838_a_at) / RFU TMPRSS6 (11731388_a_at) / Fold change /veh TMPRSS6 (11731388_a_at) / RFU KRTAP10-2 (11738614_at) / Fold change /veh KRTAP10-2 (11738614_at) / RFU ARHGAP8 /// PRR5-ARHGAP8 (11727945_x_at) / Fold change /veh ARHGAP8 /// PRR5-ARHGAP8 (11727945_x_at) / RFU KRTAP5-7 /// NADSYN1 (11734609_at) / Fold change /veh KRTAP5-7 /// NADSYN1 (11734609_at) / RFU RASL12 (11751679_a_at) / Fold change /veh RASL12 (11751679_a_at) / RFU CDKN2B (11736163_a_at) / Fold change /veh CDKN2B (11736163_a_at) / RFU PRF1 (11729649_at) / Fold change /veh PRF1 (11729649_at) / RFU, ZNF638 /// ZNF638-IT1 / Fold change vs veh, ZNF638 /// ZNF638-IT1 / RFU, PANK3 / Fold change vs veh, PANK3 / RFU, SH3YL1 / Fold change vs veh, SH3YL1 / RFU, ZEB2 / Fold change vs veh, ZEB2 / RFU, NRIP1 / Fold change vs veh, NRIP1 / RFU, PTTG1IP / Fold change vs veh, PTTG1IP / RFU, CAPN2 / Fold change vs veh, CAPN2 / RFU, MED14 / Fold change vs veh, MED14 / RFU, SNORA58 / Fold change vs veh, SNORA58 / RFU, C1orf63 / Fold change vs veh, C1orf63 / RFU, LRRFIP1 / Fold change vs veh, LRRFIP1 / RFU, NDUFAF7 / Fold change vs veh, NDUFAF7 / RFU, SLC12A2 / Fold change vs veh, SLC12A2 / RFU, IBTK / Fold change vs veh, IBTK / RFU, ESF1 / Fold change vs veh, ESF1 / Fold change vs veh, TMEM50B / RFU, TAOK1 / Fold change vs veh, TAOK1 / RFU, ACBD3 / Fold change vs veh, ACBD3 / RFU, TMA16 / Fold change vs veh, TMA16 / RFU, RWDD3 / Fold change vs veh, RWDD3 / RFU, BCAT1 / Fold change vs veh, BCAT1 / RFU, EDEM3 / Fold change vs veh, EDEM3 / RFU, TMEM33 / Fold change vs veh, TMEM33 / RFU, WDR75 / Fold change vs veh, WDR75 / RFU, AHCTF1 / Fold change vs veh, AHCTF1 / RFU, TFRC / Fold change vs veh, TFRC / RFU, ZDHHC17 / Fold change vs veh, ZDHHC17 / RFU, NOM1 / Fold change vs veh, NOM1 / RFU, ARL8B / Fold change vs veh, ARL8B / RFU, ZBTB11 / Fold change vs veh, ZBTB11 / RFU, TAMM41 / Fold change vs veh, TAMM41 / RFU, KIAA1704 /// LOC100996395 / Fold change vs veh, KIAA1704 /// LOC100996395 / RFU, ING1 / Fold change vs veh, ING1 / RFU, TRMT61B / Fold change vs veh, TRMT61B / RFU, FUBP3 / Fold change vs veh, FUBP3 / RFU, TP53 / Fold change vs veh, TP53 / RFU, TNKS2 / Fold change vs veh, TNKS2 / RFU, ZFP14 / Fold change vs veh, ZFP14 / RFU, ACTR2 / Fold change vs veh, ACTR2 / RFU, PPP3R1 / Fold change vs veh, PPP3R1 / RFU, PIK3R1 / Fold change vs veh, PIK3R1 / RFU, HNRNPA1 / Fold change vs veh, HNRNPA1 / RFU, RNF170 / Fold change vs veh, RNF170 / RFU, ZNF28 / Fold change vs veh, ZNF28 / RFU, RNGTT / Fold change vs veh, RNGTT / RFU, OGT / Fold change vs veh, OGT / RFU, BRD1 / Fold change vs veh, BRD1 / RFU, MARS / Fold change vs veh, MARS / RFU, ZNF655 / Fold change vs veh, ZNF655 / RFU, FAHD1 / Fold change vs veh, FAHD1 / RFU, BDP1 / Fold change vs veh, BDP1 / RFU, LRRCC1 / Fold change vs veh, LRRCC1 / RFU, ARID1A / Fold change vs veh, ARID1A / RFU, ZNF146 / Fold change vs veh, ZNF146 / RFU, ZNF330 / Fold change vs veh, ZNF330 / RFU, GPN3 / Fold change vs veh, GPN3 / RFU, C9orf123 / Fold change vs veh, C9orf123 / RFU, N4BP2L2 / Fold change vs veh, N4BP2L2 / RFU, ARFIP1 / Fold change vs veh, ARFIP1 / RFU, FAM179B / Fold change vs veh, FAM179B / RFU, BCL10 / Fold change vs veh, BCL10 / RFU, UHRF1BP1L / Fold change vs veh, UHRF1BP1L / RFU, BET1 / Fold change vs veh, BET1 / RFU, CNOT2 / Fold change vs veh, CNOT2 / RFU, ZNF268 / Fold change vs veh, ZNF268 / Fold change vs veh, ZNF507 / RFU, DGCR2 / Fold change vs veh, DGCR2 / RFU, WDSUB1 / Fold change vs veh, WDSUB1 / Fold change vs veh, HSP90B1 /// MIR3652 / RFU, ADSS / Fold change vs veh, ADSS / RFU, GK / Fold change vs veh, GK / RFU, ZNF148 / Fold change vs veh, ZNF148 / RFU, TAF9 / Fold change vs veh, TAF9 / RFU, SLC1A5 / Fold change vs veh, SLC1A5 / RFU, SLMO2 / Fold change vs veh, SLMO2 / RFU, ABCC4 / Fold change vs veh, ABCC4 / RFU, LOC101060439 /// RAP1B / Fold change vs veh, LOC101060439 /// RAP1B / RFU, RFX7 / Fold change vs veh, RFX7 / RFU, GTPBP10 / Fold change vs veh, GTPBP10 / RFU, CNEP1R1 / Fold change vs veh, CNEP1R1 / RFU, BIVM-ERCC5 /// ERCC5 / Fold change vs veh, BIVM-ERCC5 /// ERCC5 / RFU, ILF3 / Fold change vs veh, ILF3 / RFU 11762660_at / Fold change /veh 11762660_at / RFU VCAN (11757783_s_at) / Fold change /veh VCAN (11757783_s_at) / RFU DDX43 (11728927_at) / Fold change /veh DDX43 (11728927_at) / RFU KRT8 (11758188_x_at) / Fold change /veh KRT8 (11758188_x_at) / RFU NKD1 (11759106_at) / Fold change /veh NKD1 (11759106_at) / RFU SRD5A1 (11742802_a_at) / Fold change /veh SRD5A1 (11742802_a_at) / RFU TPSAB1 /// TPSB2 (11721975_s_at) / Fold change /veh TPSAB1 /// TPSB2 (11721975_s_at) / RFU GSTM3 (11746129_a_at) / Fold change /veh GSTM3 (11746129_a_at) / RFU IL23R (11737362_x_at) / Fold change /veh IL23R (11737362_x_at) / RFU TMEM51 (11727254_a_at) / Fold change /veh TMEM51 (11727254_a_at) / RFU PIWIL2 (11732686_x_at) / Fold change /veh PIWIL2 (11732686_x_at) / RFU ORM1 (11744905_x_at) / Fold change /veh ORM1 (11744905_x_at) / RFU CCDC152 (11743942_at) / Fold change /veh CCDC152 (11743942_at) / RFU ECM1 (11717891_a_at) / Fold change /veh ECM1 (11717891_a_at) / RFU IL23R (11748794_a_at) / Fold change /veh IL23R (11748794_a_at) / RFU TNFAIP8L3 (11732012_x_at) / Fold change /veh TNFAIP8L3 (11732012_x_at) / RFU MBOAT4 (11741988_at) / Fold change /veh MBOAT4 (11741988_at) / RFU 11764193_at / Fold change /veh 11764193_at / RFU TMEM53 (11763286_at) / Fold change /veh TMEM53 (11763286_at) / RFU MAGEB2 (11727129_at) / Fold change /veh MAGEB2 (11727129_at) / RFU TMEM200A (11744735_a_at) / Fold change /veh TMEM200A (11744735_a_at) / RFU CCDC152 (11751479_a_at) / Fold change /veh CCDC152 (11751479_a_at) / RFU FAM211A (11726209_a_at) / Fold change /veh FAM211A (11726209_a_at) / RFU RGS16 (11746705_a_at) / Fold change /veh RGS16 (11746705_a_at) / RFU VCAN (11755009_s_at) / Fold change /veh VCAN (11755009_s_at) / RFU RHOB (11743442_s_at) / Fold change /veh RHOB (11743442_s_at) / RFU RGS16 (11720943_a_at) / Fold change /veh RGS16 (11720943_a_at) / RFU RGS16 (11720944_at) / Fold change /veh RGS16 (11720944_at) / RFU, VPS4B / Fold change vs veh, VPS4B / RFU, CREB1 / Fold change vs veh, CREB1 / RFU, DNAJC13 / Fold change vs veh, DNAJC13 / RFU, GNAQ / Fold change vs veh, GNAQ / RFU, CDK5R1 / Fold change vs veh, CDK5R1 / RFU, ZRANB3 / Fold change vs veh, ZRANB3 / RFU, CUL4A / Fold change vs veh, CUL4A / RFU, CCNY / Fold change vs veh, CCNY / RFU, UFL1 / Fold change vs veh, UFL1 / RFU, COG3 / Fold change vs veh, COG3 / RFU, DIAPH2 / Fold change vs veh, DIAPH2 / RFU, SKA2 / Fold change vs veh, SKA2 / RFU, AFF3 / Fold change vs veh, AFF3 / RFU, LMF1 / Fold change vs veh, LMF1 / RFU, IPO11 / Fold change vs veh, IPO11 / RFU, DFFB / Fold change vs veh, DFFB / RFU, FOXP1 / Fold change vs veh, FOXP1 / RFU, CARD8 / Fold change vs veh, CARD8 / RFU, STRN3 / Fold change vs veh, STRN3 / RFU, ADK / Fold change vs veh, ADK / RFU, RASSF2 / Fold change vs veh, RASSF2 / RFU, WIPF1 / Fold change vs veh, WIPF1 / RFU, LARP1B / Fold change vs veh, LARP1B / RFU, RASA1 / Fold change vs veh, RASA1 / RFU, RB1 / Fold change vs veh, RB1 / RFU, PPFIA1 / Fold change vs veh, PPFIA1 / RFU, MAT2A / Fold change vs veh, MAT2A / RFU, CCT5 / Fold change vs veh, CCT5 / RFU, WDR92 / Fold change vs veh, WDR92 / RFU, CUX1 / Fold change vs veh, CUX1 / RFU, TTC7A / Fold change vs veh, TTC7A / RFU, TMEM135 / Fold change vs veh, TMEM135 / RFU, DEPTOR / Fold change vs veh, DEPTOR / RFU, CPM / Fold change vs veh, CPM / RFU, DNAJB6 / Fold change vs veh, DNAJB6 / RFU, CACNA2D3 / Fold change vs veh, CACNA2D3 / RFU, DTX4 / Fold change vs veh, DTX4 / RFU, TFCP2 / Fold change vs veh, TFCP2 / RFU, GMCL1 /// GMCL1P1 / Fold change vs veh, GMCL1 /// GMCL1P1 / RFU, AEBP2 / Fold change vs veh, AEBP2 / RFU, SNHG1 /// SNORD22 /// SNORD25 /// SNORD26 /// SNORD27 /// SNORD28 /// SNORD29 /// SNORD31 / Fold change vs veh, SNHG1 /// SNORD22 /// SNORD25 /// SNORD26 /// SNORD27 /// SNORD28 /// SNORD29 /// SNORD31 / Fold change (Aza/veh), C12orf56 (ProbeSet 11735607_a_at) / Fold change (ACY-1035/veh), C12orf56 (ProbeSet 11735607_a_at) / Fold change (Aza/veh), FGFR1OP (ProbeSet 11751329_s_at) / Fold change (ACY-1035/veh), FGFR1OP (ProbeSet 11751329_s_at) / Fold change (Aza/veh), VPS36 (ProbeSet 11739960_a_at) / Fold change (ACY-1035/veh), VPS36 (ProbeSet 11739960_a_at) / RFU SYPL1 (11715823_x_at) / Fold change /veh SYPL1 (11715823_x_at) / RFU IGFBP7 (11715501_s_at) / Fold change /veh IGFBP7 (11715501_s_at) / RFU REEP3 (11722064_at) / Fold change /veh REEP3 (11722064_at) / RFU IGLL1 (11728026_x_at) / Fold change /veh IGLL1 (11728026_x_at): dose or concentration left out as unconfirmed. The following applies: ProbeSet 11739696_s_at; LIST D.

Consider `Nc1ncn([C@@H]2O[C@H](CO)[C@@H](O)[C@H]2O)c(=O)n1` [azacitidine], for which the “Fold change vs veh, AFF3” value is given as 0.52.
